Measurements: patent US8609692B2, “TRPV1 antagonists” (AbbVie Inc., priority 2008, dated 2013)

What was measured:
[1] = molecular target: T1, human TRPV1 receptor (hTRPV1) (Homo sapiens, UniProt Q8NER1); test: Capsaicin activation assay (Ca2+ influx, FLIPR); assay type: cell-based; conditions: 0.05 μM capsaicin, 1321N1 cells expressing hTRPV1
T1 construct: expressed in transfected cells
Method: Dulbecco's modified Eagle medium (D-MEM) (with 4.5 mg/mL glucose) and fetal bovine serum were obtained from Hyclone Laboratories, Inc. (Logan, Utah). Dulbecco's phosphate-buffered saline (D-PBS) (with 1 mg/mL glucose and 3.6 mg/l Na pyruvate, without phenol red), L-glutamine, hygromycin B, and Lipofectamine® were obtained from Life Technologies (Grand Island, N.Y.). G418 sulfate was obtained from Calbiochem-Novabiochem Corp. (San Diego, Calif.). Capsaicin (8-methyl-N-vanillyl-6-nonenamide) was obtained from Sigma-Aldrich, Co. (St. Louis, Mo.). Fluo-4 AM (N-[4-[6-[(acetyloxy)methoxy]-2,7-difluoro-3-oxo-3H-xanthen-9-yl]-2-[2-[2-[bis[2-[(acetyloxy)methoxy]-2-oxyethyl]amino]-5-methyl-phenoxy]ethoxy]phenyl]-N-[2-[(acetyloxy)methoxy]-2-oxyethyl]-glycine, (acetyloxy)methyl ester) was purchased from Molecular Probes (Eugene, Oreg.).
The cDNAs for the human TRPV1 receptor (hTRPV1) were isolated by reverse transcriptase-polymerase chain reaction (RT-PCR) from human small intestine poly A+RNA supplied by Clontech (Palo Alto, Calif.) using primers designed surrounding the initiation and termination codons identical to the published sequences (Hayes et al. Pain 2000, 88, 205-215). The resulting cDNA PCR products were subcloned into pCIneo mammalian expression vector (Promega) and fully sequenced using fluorescent dye-terminator reagents (Prism, Perkin-Elmer Applied Biosystems Division) and a Perkin-Elmer Applied Biosystems Model 373 DNA sequencer or Model 310 genetic analyzer. Expression plasmids encoding the hTRPV1 cDNA were transfected individually into 1321N1 human astrocytoma cells using Lipofectamine®. Forty-eight hours after transfection, the neomycin-resistant cells were selected with growth medium containing 800 μg/mL Geneticin (Gibco BRL). Surviving individual colonies were isolated and screened for TRPV1 receptor activity. Cells expressing recombinant homomeric TRPV1 receptors were maintained at 37° C. in D-MEM containing 4 mM L-glutamine, 300 μg/mL G418 (Cal-biochem) and 10% fetal bovine serum under a humidified 5% CO2 atmosphere.
The functional activity of compounds at the TRPV1 receptor was determined with a Ca^2+ influx assay and measurement of intracellular Ca^2+ levels ([Ca^2+]i). All compounds were tested over an 11-point half-log concentration range. Compound solutions were prepared in D-PBS (4× final concentration), and diluted serially across 96-well v-bottom tissue culture plates using a Biomek 2000 robotic automation workstation (Beckman-Coulter, Inc., Fullerton, Calif.). A 0.2 μM solution of the TRPV1 agonist capsaicin was also prepared in D-PBS. The fluorescent Ca^2+ chelating dye Fluo-4 AM was used as an indicator of the relative levels of [Ca^2+]i in a 96-well format using a Fluorescence Imaging Plate Reader (FLIPR) (Molecular Devices, Sunnyvale, Calif.). Cells were grown to confluency in 96-well black-walled tissue culture plates. Then, prior to the assay, the cells were loaded with 100 μL per well of Fluo-4 AM (2 μM, in D-PBS) for 1-2 hours at 23° C. Washing of the cells was performed to remove extracellular Fluo-4 AM (2×1 mL D-PBS per well), and afterward, the cells were placed in the reading chamber of the FLIPR instrument. 50 μL of the compound solutions were added to the cells at the 10 second time mark of the experimental run. Then, after a 3-minute time delay, 50 μL of the capsaicin solution was added at the, 190 second time mark (0.05 μM final concentration)(final volume=200 μL) to challenge the TRPV1 receptor. Time length of the experimental run was 240 seconds. Fluorescence readings were made at 1 to 5 second intervals over the course of the experimental run. The peak increase in relative fluorescence units (minus baseline) was calculated from the 190 second time mark to the end of the experimental run, and expressed as a percentage of the 0.05 μM capsaicin (control) response. […]

[2] = Rat telemetry protocol (core body temperature); assay type: in vivo; conditions: core body temperature of rats at one hour post dosing (100 μmol/kg, p.o.), relative to vehicle
Method: Male, Sprague Dawley rats, 225-250 grams were anesthetized with Sevoflurane (Abbott Laboratories). Rats were placed on a heating pad and covered with a sterile surgical drape. A ventral midline abdominal incision was made and sterile cotton tip applicators were used to gently move internal tissue and expose the abdominal aorta for implantation of the telemetry catheter (Data Sciences International; TL11M2-050-PXT). Blood flow was temporarily stopped to the lower extremities (5-7 min) with Diffenbach clamps to allow the insertion of the telemetry catheter into the abdominal aorta. Once inserted, a sterile cellulose patch was placed over the catheter/aorta and secured using a small amount of tissue adhesive (Vetbond, 3M). Once catheter placement was complete, the clamps were removed and blood flow was restored to the lower extremities. The transmitter was placed in the intraperitoneal cavity. The transmitter suture rib was sewn into the abdominal sutures to secure it in place. The skin was closed using sterile wound clips and the animal removed from Sevoflurane. Buprenex ([…] s.c.; Phoenix) was administered for post-operative analgesia. Animals were maintained on a heating pad until ambulatory, and then individually housed with food and water ad lib. Surgical staples were removed after 7-10 days post-implantation. Rats were allowed a 2-week post-surgical recovery period before treatment with test compound. Oral dosing (p.o.) was at time zero, with rats receiving a single dose of vehicle (10% EtOH, 20% Tween-80, 70% PEG-400) or a 100 μmol/kg dose of compound dissolved in vehicle. Temperature measurements were recorded every 15 minutes for the duration of the study (24 hours).
The term “core body temperature” as used herein, means the temperature measured in the intraperitoneal cavity.

T1 sequence (Q8NER1 whole entry): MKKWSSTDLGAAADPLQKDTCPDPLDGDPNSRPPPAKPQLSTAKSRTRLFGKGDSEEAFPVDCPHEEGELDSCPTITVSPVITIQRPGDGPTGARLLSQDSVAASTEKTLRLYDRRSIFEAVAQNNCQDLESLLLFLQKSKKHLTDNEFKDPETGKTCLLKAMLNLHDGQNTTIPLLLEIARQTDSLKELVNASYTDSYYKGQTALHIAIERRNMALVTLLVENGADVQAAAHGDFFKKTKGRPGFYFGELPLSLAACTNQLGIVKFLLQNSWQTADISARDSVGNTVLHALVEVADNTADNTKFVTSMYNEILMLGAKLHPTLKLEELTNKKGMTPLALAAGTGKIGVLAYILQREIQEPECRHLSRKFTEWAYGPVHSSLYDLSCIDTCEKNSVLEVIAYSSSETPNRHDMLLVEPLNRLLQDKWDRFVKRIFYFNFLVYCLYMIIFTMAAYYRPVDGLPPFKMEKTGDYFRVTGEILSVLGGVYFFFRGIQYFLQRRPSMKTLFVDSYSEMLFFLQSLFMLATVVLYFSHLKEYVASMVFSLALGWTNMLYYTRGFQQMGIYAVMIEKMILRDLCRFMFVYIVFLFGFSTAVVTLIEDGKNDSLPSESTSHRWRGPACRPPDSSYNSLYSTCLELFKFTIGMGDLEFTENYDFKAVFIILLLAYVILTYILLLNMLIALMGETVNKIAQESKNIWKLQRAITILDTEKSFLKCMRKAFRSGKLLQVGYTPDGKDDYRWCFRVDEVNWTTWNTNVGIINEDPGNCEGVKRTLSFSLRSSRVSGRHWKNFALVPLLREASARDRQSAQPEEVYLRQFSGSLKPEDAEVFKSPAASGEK

## CCC1(CC)C[C@@H](NC(=O)Nc2cccc3c2cnn3C)c2cc(F)cc(F)c2O1 [Example 60, N-[(4R)-2,2-diethyl-6,8-difluoro-3,4-dihydro-2H-chromen-4-yl]-N′-(1-methyl-1H-indazol-4-yl)urea]
[1]
  IC50: 22 nM
[2]
  Δ Temp: 0.7 °C

## O=C(Nc1cccc2[nH]ncc12)N[C@@H]1CCOc2c1cccc2C(F)(F)F [Example 63, N-1H-indazol-4-yl-N′-[(4R)-8-(trifluoromethyl)-3,4-dihydro-2H-chromen-4-yl]urea]
[1]
  IC50: 10 nM
[2]
  Δ Temp: 1.0 °C

## CCC1(CC)C[C@@H](NC(=O)Nc2cccc3c2C[C@@H](O)CC3)c2ccc(F)cc2O1 [Example 71, N-[(4R)-2,2-diethyl-7-fluoro-3,4-dihydro-2H-chromen-4-yl]-N′-[(7S)-7-hydroxy-5,6,7,8-tetrahydronaphthalen-1-yl]urea]
[1]
  IC50: 9 nM
[2]
  Δ Temp: 0.5 °C

## CCCC1(CCC)C[C@@H](NC(=O)Nc2cccc3c2C[C@H](O)CC3)c2cc(F)ccc2O1 [Example 72, N-[(4R)-6-fluoro-2,2-dipropyl-3,4-dihydro-2H-chromen-4-yl]-N′-[(7R)-7-hydroxy-5,6,7,8-tetrahydronaphthalen-1-yl]urea]
[1]
  IC50: 7 nM
[2]
  Δ Temp: 0.7 °C

## CCC1(CC)C[C@@H](NC(=O)Nc2cccc3c2C[C@@H](O)CC3)c2cc(F)ccc2O1 [Example 73, N-[(4R)-2,2-diethyl-6-fluoro-3,4-dihydro-2H-chromen-4-yl]-N′-[(7S)-7-hydroxy-5,6,7,8-tetrahydronaphthalen-1-yl]urea]
[1]
  IC50: 9 nM
[2]
  Δ Temp: 0.9 °C

## CCC1(CC)C[C@@H](NC(=O)Nc2cccc3c2C[C@H](O)CC3)c2ccc(F)cc2O1 [Example 74, N-[(4R)-2,2-diethyl-7-fluoro-3,4-dihydro-2H-chromen-4-yl]-N′-[(7R)-7-hydroxy-5,6,7,8-tetrahydronaphthalen-1-yl]urea]
[1]
  IC50: 13 nM
[2]
  Δ Temp: 0.9 °C

## CCC1(CC)C[C@@H](NC(=O)Nc2cccc3c2C[C@H](O)CC3)c2ccc(Cl)cc2O1 [Example 75, N-[(4R)-7-chloro-2,2-diethyl-3,4-dihydro-2H-chromen-4-yl]-N′-[(7R)-7-hydroxy-5,6,7,8-tetrahydronaphthalen-1-yl]urea]
[1]
  IC50: 10 nM
[2]
  Δ Temp: 1.0 °C

## CCC1(CC)C[C@@H](NC(=O)Nc2cccc3c2C[C@@H](O)CC3)c2ccc(Cl)cc2O1 [Example 76, N-[(4R)-7-chloro-2,2-diethyl-3,4-dihydro-2H-chromen-4-yl]-N′-[(7S)-7-hydroxy-5,6,7,8-tetrahydronaphthalen-1-yl]urea]
[1]
  IC50: 9 nM
[2]
  Δ Temp: 1.3 °C

## CCC1(CC)C[C@@H](NC(=O)Nc2cccc3c2cnn3C)c2cccc(C(F)(F)F)c2O1 [Example 77, N-[(4R)-2,2-diethyl-8-(trifluoromethyl)-3,4-dihydro-2H-chromen-4-yl]-N′-(1-methyl-1H-indazol-4-yl)urea]
[1]
  IC50: 37 nM
[2]
  Δ Temp: 1.0 °C

## CCC1(CC)C[C@@H](NC(=O)Nc2cccc3c2cnn3C)c2ccc(Cl)cc2O1 [Example 78, N-[(4R)-7-chloro-2,2-diethyl-3,4-dihydro-2H-chromen-4-yl]-N′-(1-methyl-1H-indazol-4-yl)urea]
[1]
  IC50: 13 nM
[2]
  Δ Temp: 0.6 °C

## Cn1ncc2c(NC(=O)N[C@@H]3CCOc4c(OC(F)(F)F)cccc43)cccc21 [Example 79, N-(1-methyl-1H-indazol-4-yl)-N′-[(4R)-8-(trifluoromethoxy)-3,4-dihydro-2H-chromen-4-yl]urea]
[1]
  IC50: 4 nM
[2]
  Δ Temp: 1.5 °C

## Cc1cc2c(NC(=O)N[C@@H]3CC(C)(C)Oc4cc(OC(F)(F)F)ccc43)cccc2cn1 [Example 80, N-[(4R)-2,2-dimethyl-7-(trifluoromethoxy)-3,4-dihydro-2H-chromen-4-yl]-N′-(3-methylisoquinolin-5-yl)urea]
[1]
  IC50: 8 nM
[2]
  Δ Temp: 1.7 °C

## CCC1(CC)C[C@@H](NC(=O)Nc2cccc3ccncc23)c2ccc(F)cc2O1 [Example 82, N-[(4R)-2,2-diethyl-7-fluoro-3,4-dihydro-2H-chromen-4-yl]-N′-isoquinolin-8-ylurea]
[1]
  IC50: 18 nM
[2]
  Δ Temp: 1.5 °C

## O=C(Nc1cccc2c1C[C@H](O)CC2)N[C@@H]1CC(CF)(CF)Oc2cc(F)ccc21 [Example 89, N-[(4R)-7-fluoro-2,2-bis(fluoromethyl)-3,4-dihydro-2H-chromen-4-yl]-N′-[(7R)-7-hydroxy-5,6,7,8-tetrahydronaphthalen-1-yl]urea]
[1]
  IC50: 29 nM
[2]
  Δ Temp: 1.3 °C

## CC1(C)C[C@@H](NC(=O)Nc2cccc3cnc(N)cc23)c2ccc(C(F)(F)F)cc2O1 [Example 90, N-(3-aminoisoquinolin-5-yl)-N′-[(4R)-2,2-dimethyl-7-(trifluoromethyl)-3,4-dihydro-2H-chromen-4-yl]urea]
[1]
  IC50: 17 nM
[2]
  Δ Temp: 1.0 °C

## Cn1ncc2c(NC(=O)N[C@@H]3CC(CF)(CF)Oc4cc(OC(F)(F)F)ccc43)cccc21 [Example 92, N-[(4R)-2,2-bis(fluoromethyl)-7-(trifluoromethoxy)-3,4-dihydro-2H-chromen-4-yl]-N′-(1-methyl-1H-indazol-4-yl)urea]
[1]
  IC50: 21 nM
[2]
  Δ Temp: 0.8 °C

## O=C(Nc1cccc2ccncc12)N[C@@H]1CC(CF)(CF)Oc2cc(C(F)(F)F)ccc21 [Example 93, N-[(4R)-2,2-bis(fluoromethyl)-7-(trifluoromethyl)-3,4-dihydro-2H-chromen-4-yl]-N′-isoquinolin-8-ylurea]
[1]
  IC50: 32 nM
[2]
  Δ Temp: 1.1 °C

## Cc1cc2c(NC(=O)N[C@@H]3CC(C)(C)Oc4c3ccc(C(F)(F)F)c4F)cccc2cn1 [Example 99, N-[(4R)-8-fluoro-2,2-dimethyl-7-(trifluoromethyl)-3,4-dihydro-2H-chromen-4-yl]-N′-(3-methylisoquinolin-5-yl)urea]
[1]
  IC50: 7 nM
[2]
  Δ Temp: 0.8 °C

## CC1(C)C[C@@H](NC(=O)Nc2cccc3c2C[C@@H](O)CC3)c2ccc(Cl)cc2O1 [Example 103, N-[(4R)-7-chloro-2,2-dimethyl-3,4-dihydro-2H-chromen-4-yl]-N′-[(7S)-7-hydroxy-5,6,7,8-tetrahydronaphthalen-1-yl]urea]
[1]
  IC50: 21 nM
[2]
  Δ Temp: 1.3 °C

## O=C(Nc1cccc2c1C[C@@H](O)CC2)N[C@@H]1CC(CF)(CF)Oc2cc(Cl)ccc21 [Example 104, N-[(4R)-7-chloro-2,2-bis(fluoromethyl)-3,4-dihydro-2H-chromen-4-yl]-N′-[(7S)-7-hydroxy-5,6,7,8-tetrahydronaphthalen-1-yl]urea]
[1]
  IC50: 25 nM
[2]
  Δ Temp: 1.1 °C
